Measured values: ChEMBL document CHEMBL5678795 (Eur J Pharmacol, 1999)
Active and inactive are the calls of the source. The rule behind the calls is not given here.

Key:
[1] = molecular target: Kappa-type opioid receptor (Homo sapiens) (UniProt P41145); assay: Displacement of [3H]U-69593 from human kappa-Opioid receptor at 10 uM incubated for 60 mins by radiometric based scintillation counter assay relative to control
Endothelin-1 receptor [2] = molecular target: T1, Endothelin-1 receptor (Homo sapiens, UniProt P25101); assay: Displacement of [125I]endhothelin-1 from human ETA receptor stably expressed in CHO cells Membrane at 25 degC incubated for 3 hrs by radioligand competition binding assay; assay type: cell membranes
T1 sequence (P25101 whole entry): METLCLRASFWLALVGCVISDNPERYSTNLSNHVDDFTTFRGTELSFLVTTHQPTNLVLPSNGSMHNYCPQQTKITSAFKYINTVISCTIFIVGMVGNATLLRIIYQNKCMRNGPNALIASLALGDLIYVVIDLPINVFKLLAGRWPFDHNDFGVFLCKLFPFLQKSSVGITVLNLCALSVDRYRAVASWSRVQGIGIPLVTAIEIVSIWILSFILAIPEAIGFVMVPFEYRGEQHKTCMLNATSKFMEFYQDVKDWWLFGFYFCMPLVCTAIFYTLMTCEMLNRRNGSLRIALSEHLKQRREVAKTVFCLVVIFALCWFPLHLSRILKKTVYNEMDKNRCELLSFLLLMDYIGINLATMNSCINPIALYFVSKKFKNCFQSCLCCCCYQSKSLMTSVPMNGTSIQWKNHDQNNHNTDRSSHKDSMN

Endothelin-1 receptor [3] = molecular target: T2, Endothelin-1 receptor (Rattus norvegicus, UniProt P26684); assay: Antagonist activity to ETA receptor in Sprague-Dawley rat aorta assessed as induction of vessel ring contraction preincubated for 15 mins; assay type: functional, tissue-based; settings: read-out: pA2 (converted)
T2 sequence (P26684 whole entry): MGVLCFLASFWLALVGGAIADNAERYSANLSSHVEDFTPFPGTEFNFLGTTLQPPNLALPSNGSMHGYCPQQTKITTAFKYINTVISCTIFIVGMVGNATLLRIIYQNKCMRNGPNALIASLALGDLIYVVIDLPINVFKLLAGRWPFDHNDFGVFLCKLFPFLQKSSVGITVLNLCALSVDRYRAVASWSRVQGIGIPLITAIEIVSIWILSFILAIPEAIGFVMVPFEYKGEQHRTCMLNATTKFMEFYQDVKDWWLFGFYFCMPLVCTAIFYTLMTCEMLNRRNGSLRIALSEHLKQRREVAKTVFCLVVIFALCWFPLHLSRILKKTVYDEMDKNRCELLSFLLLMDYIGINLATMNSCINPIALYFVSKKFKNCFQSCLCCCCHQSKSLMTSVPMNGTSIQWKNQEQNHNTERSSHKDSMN

[4] = molecular target: Gastrin/cholecystokinin type B receptor (Homo sapiens) (UniProt P32239); assay: Displacement of [125I]CCK-8s from human recombinant cholecystokinin B receptor at 10 uM incubated for 60 mins by radiometric based scintillation counter assay relative to control
Sequence of Gastrin/cholecystokinin type B receptor (Homo sapiens) (P32239 whole entry): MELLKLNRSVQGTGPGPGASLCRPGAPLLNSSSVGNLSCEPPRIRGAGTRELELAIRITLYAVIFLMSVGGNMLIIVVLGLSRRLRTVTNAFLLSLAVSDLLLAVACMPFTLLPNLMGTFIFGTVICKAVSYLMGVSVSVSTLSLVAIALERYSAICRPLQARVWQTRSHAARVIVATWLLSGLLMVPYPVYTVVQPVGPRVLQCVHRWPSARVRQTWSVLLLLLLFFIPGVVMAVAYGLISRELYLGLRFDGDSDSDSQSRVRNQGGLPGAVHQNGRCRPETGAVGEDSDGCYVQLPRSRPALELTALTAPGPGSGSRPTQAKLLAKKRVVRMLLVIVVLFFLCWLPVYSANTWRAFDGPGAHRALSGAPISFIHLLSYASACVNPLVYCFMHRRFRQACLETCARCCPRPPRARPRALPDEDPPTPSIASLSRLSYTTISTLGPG

[5] = molecular target: Cannabinoid receptor 1 (Homo sapiens) (UniProt P21554); assay: Displacement of [3H]CP 55940 from human recombinant cannabinoid CB1 receptor at 10 uM incubated for 30 mins by radiometric based scintillation counter assay relative to control
Sequence of Cannabinoid receptor 1 (Homo sapiens) (P21554 whole entry): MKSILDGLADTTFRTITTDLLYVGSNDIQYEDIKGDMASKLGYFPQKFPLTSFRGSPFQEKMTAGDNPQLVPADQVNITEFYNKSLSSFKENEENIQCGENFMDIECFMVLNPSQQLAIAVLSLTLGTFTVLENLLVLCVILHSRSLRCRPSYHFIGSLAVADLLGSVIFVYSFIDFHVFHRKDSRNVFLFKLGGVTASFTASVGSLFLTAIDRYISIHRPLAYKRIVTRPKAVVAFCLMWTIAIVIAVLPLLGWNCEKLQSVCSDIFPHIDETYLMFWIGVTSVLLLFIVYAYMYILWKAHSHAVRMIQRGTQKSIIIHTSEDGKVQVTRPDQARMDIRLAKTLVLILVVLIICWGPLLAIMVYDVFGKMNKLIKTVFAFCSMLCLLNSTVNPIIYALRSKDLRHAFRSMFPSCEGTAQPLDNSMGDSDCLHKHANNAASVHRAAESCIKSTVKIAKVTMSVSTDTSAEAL

[6] = molecular target: Adenosine receptor A1 (Homo sapiens) (UniProt P30542); assay: Displacement of [3H]DPCPX from human recombinant Adenosine A1 receptor at 10 uM incubated for 60 mins by radiometric based scintillation counter assay relative to control
Sequence of Adenosine receptor A1 (Homo sapiens) (P30542 whole entry): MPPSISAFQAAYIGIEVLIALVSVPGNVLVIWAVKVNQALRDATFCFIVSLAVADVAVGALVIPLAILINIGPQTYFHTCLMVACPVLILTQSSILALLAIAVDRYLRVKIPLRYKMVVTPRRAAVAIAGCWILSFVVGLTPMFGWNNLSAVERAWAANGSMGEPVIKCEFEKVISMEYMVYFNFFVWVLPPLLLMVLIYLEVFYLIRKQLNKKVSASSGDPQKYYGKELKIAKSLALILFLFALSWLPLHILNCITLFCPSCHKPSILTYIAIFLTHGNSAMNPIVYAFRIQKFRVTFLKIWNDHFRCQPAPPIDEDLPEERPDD

[7] = molecular target: Adrenergic receptor alpha-1 (Rattus norvegicus) (UniProt P15823+P23944+P43140); assay: Displacement of [3H]prazosin from rat brain alpha1-adrenoceptor at 10 uM incubated for 60 mins by radiometric based scintillation counter assay relative to control; assay type: tissue-based
[8] = Plasma clearance in Sprague-Dawley rat at 5 mg/kg, iv administered for 12 hrs by reverse phase HPLC-UV analysis; assay type: ADME, organism-based
[9] = molecular target: Endothelin receptor type B (Oryctolagus cuniculus, UniProt Q9N0W7); assay: Antagonist activity to ETB receptor in sarafotoxin-6c stimulated rabbit pulmonary artery assessed as induction of vessel ring contraction preincubated for 15 mins; assay type: functional, tissue-based; settings: read-out: pA2 (converted)
Sequence of Endothelin receptor type B (Oryctolagus cuniculus, UniProt Q9N0W7) (Q9N0W7 whole entry): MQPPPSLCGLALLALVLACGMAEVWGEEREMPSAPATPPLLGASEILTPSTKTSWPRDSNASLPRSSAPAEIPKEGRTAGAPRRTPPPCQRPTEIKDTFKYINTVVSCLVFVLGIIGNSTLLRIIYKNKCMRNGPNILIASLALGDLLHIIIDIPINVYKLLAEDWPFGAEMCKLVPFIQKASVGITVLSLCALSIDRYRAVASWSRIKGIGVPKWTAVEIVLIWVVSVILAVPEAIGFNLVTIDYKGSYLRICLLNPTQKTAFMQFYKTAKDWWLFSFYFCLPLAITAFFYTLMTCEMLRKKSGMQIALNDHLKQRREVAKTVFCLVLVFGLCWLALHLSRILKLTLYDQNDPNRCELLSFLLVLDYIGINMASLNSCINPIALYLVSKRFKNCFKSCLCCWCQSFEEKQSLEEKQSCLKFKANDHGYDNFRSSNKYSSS

[10] = molecular target: T3, Endothelin-1 receptor (Homo sapiens) (UniProt P25101); assay: Displacement of [125I]endothelin-1 from human recombinant endothelin ETA receptor at 10 uM incubated for 120 mins by radiometric based scintillation counter assay relative to control; settings: filed as antagonist
T3 sequence (whole entry): T1 sequence (P25101 whole entry)

[11] = Half life in cynomolgus monkey at 5 mg/kg, po administered for 12 hrs by HPLC analysis; assay type: ADME, organism-based, Macaca fascicularis; settings: in vivo
[12] = molecular target: Bombesin receptor (Rattus norvegicus) (UniProt P52500+P24053+Q8K418); assay: Displacement of [125I][Tyr4]bombesin from rat brain Bombesin receptor at 10 uM incubated for 60 mins by radiometric based scintillation counter assay relative to control; assay type: tissue-based
Sequence of Bombesin receptor (Rattus norvegicus) (P24053 whole entry, looked up): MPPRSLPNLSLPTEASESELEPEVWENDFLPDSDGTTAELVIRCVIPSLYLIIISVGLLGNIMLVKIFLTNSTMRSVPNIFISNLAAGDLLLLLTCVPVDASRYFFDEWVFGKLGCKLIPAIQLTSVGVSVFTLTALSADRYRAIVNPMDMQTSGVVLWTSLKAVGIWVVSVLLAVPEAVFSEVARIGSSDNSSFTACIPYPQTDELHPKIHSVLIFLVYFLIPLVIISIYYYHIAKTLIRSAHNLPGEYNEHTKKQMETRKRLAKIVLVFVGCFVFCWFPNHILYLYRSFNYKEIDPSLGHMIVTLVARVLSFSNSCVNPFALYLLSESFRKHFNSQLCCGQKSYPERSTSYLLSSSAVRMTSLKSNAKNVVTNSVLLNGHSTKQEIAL
Sequence of Bombesin receptor (Rattus norvegicus) (P52500 whole entry, looked up): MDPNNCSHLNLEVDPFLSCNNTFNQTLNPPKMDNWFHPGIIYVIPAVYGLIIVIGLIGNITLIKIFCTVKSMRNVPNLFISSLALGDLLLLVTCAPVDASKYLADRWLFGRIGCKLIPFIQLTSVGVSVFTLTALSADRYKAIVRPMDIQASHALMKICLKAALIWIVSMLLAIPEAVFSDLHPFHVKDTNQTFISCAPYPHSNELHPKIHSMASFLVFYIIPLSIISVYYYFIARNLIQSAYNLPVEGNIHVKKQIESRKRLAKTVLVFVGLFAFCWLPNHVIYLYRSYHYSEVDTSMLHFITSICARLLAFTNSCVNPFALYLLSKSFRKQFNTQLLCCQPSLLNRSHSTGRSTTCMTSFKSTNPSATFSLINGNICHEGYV
Sequence of Bombesin receptor (Rattus norvegicus) (Q8K418 whole entry, looked up): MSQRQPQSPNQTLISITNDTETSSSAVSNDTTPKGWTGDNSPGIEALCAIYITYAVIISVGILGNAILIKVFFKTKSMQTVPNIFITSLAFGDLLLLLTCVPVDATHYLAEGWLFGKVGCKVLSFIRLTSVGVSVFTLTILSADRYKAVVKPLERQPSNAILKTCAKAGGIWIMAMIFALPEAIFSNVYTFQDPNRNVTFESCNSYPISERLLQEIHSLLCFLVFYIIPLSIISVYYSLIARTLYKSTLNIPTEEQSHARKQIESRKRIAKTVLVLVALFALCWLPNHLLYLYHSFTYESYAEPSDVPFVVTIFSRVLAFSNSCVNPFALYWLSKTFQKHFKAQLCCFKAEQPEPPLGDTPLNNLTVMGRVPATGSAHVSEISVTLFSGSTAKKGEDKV

[13] = molecular target: Delta-type opioid receptor (Homo sapiens) (UniProt P41143); assay: Displacement of [3H]DPDPE from human recombinant delta-Opioid receptor at 10 uM incubated for 60 mins by radiometric based scintillation counter assay relative to control; settings: filed as antagonist
Sequence of Delta-type opioid receptor (Homo sapiens) (P41143 whole entry): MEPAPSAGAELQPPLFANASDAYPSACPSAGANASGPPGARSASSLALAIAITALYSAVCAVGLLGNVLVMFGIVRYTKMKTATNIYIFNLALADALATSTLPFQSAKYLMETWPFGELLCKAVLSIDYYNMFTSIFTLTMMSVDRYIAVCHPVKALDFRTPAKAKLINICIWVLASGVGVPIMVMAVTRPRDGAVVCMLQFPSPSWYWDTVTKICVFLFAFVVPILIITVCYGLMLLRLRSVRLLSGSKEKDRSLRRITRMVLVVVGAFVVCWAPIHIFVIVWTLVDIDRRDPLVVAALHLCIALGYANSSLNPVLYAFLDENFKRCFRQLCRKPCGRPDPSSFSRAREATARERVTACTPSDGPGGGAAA

[14] = molecular target: T4, Endothelin-1 receptor (Rattus norvegicus) (UniProt P26684); assay: In vivo antagonist activity to ETA receptor in endothelin-1 induced Sprague-Dawley rat assessed as inhibition of transient depressor response at 100 mg/kg, po administered for 4 hrs; assay type: functional, organism-based
T4 sequence (whole entry): T2 sequence (P26684 whole entry)

[15] = molecular target: Muscarinic acetylcholine receptor M4 (Homo sapiens) (UniProt P08173); assay: Displacement of [3H]4-DAMP from human recombinant muscarinic M4 receptor at 10 uM incubated for 60 mins by radiometric based scintillation counter assay relative to control
Sequence of Muscarinic acetylcholine receptor M4 (Homo sapiens) (P08173 whole entry): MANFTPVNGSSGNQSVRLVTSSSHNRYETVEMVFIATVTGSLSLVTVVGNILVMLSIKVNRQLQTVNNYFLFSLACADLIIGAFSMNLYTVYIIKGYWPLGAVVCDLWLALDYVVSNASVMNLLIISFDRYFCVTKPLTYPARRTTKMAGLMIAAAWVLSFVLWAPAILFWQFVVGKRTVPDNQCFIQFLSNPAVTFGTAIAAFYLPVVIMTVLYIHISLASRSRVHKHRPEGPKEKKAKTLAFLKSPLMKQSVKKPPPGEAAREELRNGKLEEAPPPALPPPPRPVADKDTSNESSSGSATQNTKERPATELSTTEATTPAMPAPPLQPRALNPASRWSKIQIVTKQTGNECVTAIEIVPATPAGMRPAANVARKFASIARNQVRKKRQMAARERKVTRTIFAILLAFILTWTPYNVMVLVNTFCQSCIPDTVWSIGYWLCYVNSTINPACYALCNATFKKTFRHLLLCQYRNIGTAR

Homo sapiens = organism: Homo sapiens; assay: Inhibition of human galanin receptor at 10 uM by radioligand binding assay relative to control
[16] = molecular target: Neuropeptide Y receptor type 2 (Homo sapiens) (UniProt P49146); assay: Displacement of [125I]peptide YY from human recombinant Y2 receptor at 10 uM incubated for 60 mins by radiometric based scintillation counter assay relative to control
Sequence of Neuropeptide Y receptor type 2 (Homo sapiens) (P49146 whole entry): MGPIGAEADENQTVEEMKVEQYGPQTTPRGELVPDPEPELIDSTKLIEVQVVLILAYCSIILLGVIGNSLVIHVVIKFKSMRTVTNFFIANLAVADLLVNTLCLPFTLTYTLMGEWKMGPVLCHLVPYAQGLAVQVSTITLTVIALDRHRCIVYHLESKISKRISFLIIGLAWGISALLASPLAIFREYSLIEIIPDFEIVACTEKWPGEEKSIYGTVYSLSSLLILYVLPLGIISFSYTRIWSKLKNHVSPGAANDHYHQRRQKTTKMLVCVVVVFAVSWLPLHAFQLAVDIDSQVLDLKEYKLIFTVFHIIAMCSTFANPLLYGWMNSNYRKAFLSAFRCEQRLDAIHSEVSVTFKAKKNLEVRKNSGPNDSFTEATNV

[17] = molecular target: T5, Endothelin receptor type B (Homo sapiens, UniProt P24530); assay: Displacement of [125I]endhothelin-3 from human ETB receptor stably expressed in CHO cells Membrane assessed as inhibition constant at 25 degC incubated for 4 hrs by saturation binding assay; assay type: cell membranes
T5 sequence (P24530 whole entry): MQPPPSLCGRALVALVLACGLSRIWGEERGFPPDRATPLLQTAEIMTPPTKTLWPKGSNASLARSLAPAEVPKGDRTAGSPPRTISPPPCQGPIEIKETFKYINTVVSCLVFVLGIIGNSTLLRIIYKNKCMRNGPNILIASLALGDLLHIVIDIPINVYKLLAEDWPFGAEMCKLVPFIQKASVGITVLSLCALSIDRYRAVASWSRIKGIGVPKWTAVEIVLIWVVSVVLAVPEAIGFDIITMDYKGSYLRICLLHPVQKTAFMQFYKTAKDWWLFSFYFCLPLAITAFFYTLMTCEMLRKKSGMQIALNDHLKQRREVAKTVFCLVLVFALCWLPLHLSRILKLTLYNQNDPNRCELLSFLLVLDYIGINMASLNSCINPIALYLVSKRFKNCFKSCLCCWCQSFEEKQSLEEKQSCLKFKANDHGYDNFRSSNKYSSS

[18] = molecular target: Muscarinic acetylcholine receptor M2 (Homo sapiens) (UniProt P08172); assay: Displacement of [3H]AF-DX 384 from human recombinant muscarinic M2 receptor at 10 uM incubated for 60 mins by radiometric based scintillation counter assay relative to control
Sequence of Muscarinic acetylcholine receptor M2 (Homo sapiens) (P08172 whole entry): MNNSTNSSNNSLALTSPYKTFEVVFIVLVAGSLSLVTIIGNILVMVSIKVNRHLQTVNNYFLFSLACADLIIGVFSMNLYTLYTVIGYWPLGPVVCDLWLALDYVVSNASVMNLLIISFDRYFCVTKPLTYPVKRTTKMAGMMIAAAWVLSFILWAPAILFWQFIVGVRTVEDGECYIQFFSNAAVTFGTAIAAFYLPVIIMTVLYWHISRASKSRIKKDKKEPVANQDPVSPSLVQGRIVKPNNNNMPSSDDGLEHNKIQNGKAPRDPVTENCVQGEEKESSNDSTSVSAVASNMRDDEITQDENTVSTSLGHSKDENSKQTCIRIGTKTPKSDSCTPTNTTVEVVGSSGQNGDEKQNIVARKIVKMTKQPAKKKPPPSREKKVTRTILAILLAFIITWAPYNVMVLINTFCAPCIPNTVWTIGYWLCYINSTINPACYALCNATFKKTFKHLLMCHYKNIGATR

Sequence of Kappa-type opioid receptor (Homo sapiens) (P41145 whole entry): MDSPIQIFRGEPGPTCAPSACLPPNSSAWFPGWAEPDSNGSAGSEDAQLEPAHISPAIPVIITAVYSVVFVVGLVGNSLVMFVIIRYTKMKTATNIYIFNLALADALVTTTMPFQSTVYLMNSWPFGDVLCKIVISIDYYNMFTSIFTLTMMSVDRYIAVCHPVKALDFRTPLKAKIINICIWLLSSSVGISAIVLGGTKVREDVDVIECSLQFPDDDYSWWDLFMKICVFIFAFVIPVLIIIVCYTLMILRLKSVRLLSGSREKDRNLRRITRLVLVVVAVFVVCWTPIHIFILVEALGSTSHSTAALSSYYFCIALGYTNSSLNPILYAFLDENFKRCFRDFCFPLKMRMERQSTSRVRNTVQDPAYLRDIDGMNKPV

Structure (SMILES): CCCCN(CCCC)C(=O)CN1[C@H](c2cc(OC)c3c(c2)OCO3)C[C@@H](C(=O)O)[C@@H]1CC(C)(C)CCC
- inhibition [1]: 28%
- IC50 (Endothelin-1 receptor [2]): 0.00049 µM
- Kb (Endothelin-1 receptor [3]): 0.00513 µM
- inhibition [4]: < 10%
- inhibition [5]: < 10%
- inhibition [6]: 23%
- inhibition [7]: < 10%
- clearance [8]: 25 mL/min/kg
- Kb [9]: 26.9 µM
- inhibition [10]: 98%
- half-life [11]: 1 h
- inhibition [12]: < 10%
- inhibition [13]: 62%
- Activity [14]: Active
- inhibition [15]: < 10%
- inhibition (Homo sapiens): < 10%
- inhibition [16]: < 10%
- Ki [17]: 13 µM
- inhibition [18]: < 10%
